According to PubChem BioAssay AID1259411 (Chemical Carcinogenesis Research Information System (CCRIS), 2018):
Activity calls are given as the source filed them. How the calls were made is not given here.

Test system: rodent carcinogenicity bioassays, tumor incidence
Experiment: CCRIS carcinogenicity studies
Outline: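 Archive of carcinogenicity, mutagenicity, tumor promotion and tumor inhibition results drawn from journals, NCI reports and other sources, expert-reviewed; covers 1985-2011 and is no longer updated.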

O=c1[nH]c(=O)n(C2CCCO2)cc1F (stereo unspecified)
carcinogen call (Species: MOUSE, Strain/Sex: C57BL/CBA/FEMALE, Route: GAVAGE, Dose: 0, 40 MG/KG IN 0.2 ML OF A STARCH/WATER SUSPENSION 2/WK FOR 12 MO (STUDY DURATION: LIFETIME)): inactive; negative
carcinogen call (Species: MOUSE, Strain/Sex: C57BL/CBA/MALE, Route: GAVAGE, Dose: 0, 40 MG/KG IN 0.2 ML OF A STARCH/WATER SUSPENSION 2/WK FOR 12 MO (STUDY DURATION: LIFETIME)): inactive; negative
carcinogen call (Species: RAT, Strain/Sex: WISTAR/FEMALE, Route: GAVAGE, Dose: 0, 60 MG/KG IN 0.5 ML OF A STARCH/WATER SUSPENSION 2/WK FOR 12 MO (STUDY DURATION: LIFETIME)): inactive; negative
carcinogen call (Species: RAT, Strain/Sex: WISTAR/MALE, Route: GAVAGE, Dose: 0, 60 MG/KG IN 0.5 ML OF A STARCH/WATER SUSPENSION 2/WK FOR 12 MO (STUDY DURATION: LIFETIME)): inactive; negative

O.O=C([O-])c1ccccn1.O=C([O-])c1ccccn1.O=C([O-])c1ccccn1.[Cr+3]
carcinogen call (Species: Mouse, Strain/Sex: B6C3F1 /Female (50/Group), Route: Oral, Dose: 0, 2000, 10,000, 50,000 ppm (average daily doses of 0; 240; 1200; 6100 mg/kg) in diet for 105 wk, Dose: 0, 2000, 10,000, 50,000 ppm (average daily doses of 0; 240; 1200; 6100 mg/kg) in diet for 105 wk): inactive; negative
carcinogen call (Species: Mouse, Strain/Sex: B6C3F1/Female (50/Group), Route: Oral, Dose: 0, 2,000, 10,000, 50,000 ppm in diet for 105 wk (Study duration: 105 wk), Dose: 0, 2,000, 10,000, 50,000 ppm in diet for 105 wk (Study duration: 105 wk)): inactive; negative
carcinogen call (Species: Mouse, Strain/Sex: B6C3F1/Male (50/Group), Route: Oral, Dose: 0, 2000, 10,000, 50,000 ppm (average daily doses of 0; 250; 1200; 6565 mg/kg) in diet for 105 wk, Dose: 0, 2000, 10,000, 50,000 ppm (average daily doses of 0; 250; 1200; 6565 mg/kg) in diet for 105 wk): inactive; negative
carcinogen call (Species: Mouse, Strain/Sex: B6C3F1/Male (50/Group), Route: Oral, Dose: 0, 2,000, 10,000, 50,000 ppm in diet for 105 wk (Study duration: 105 wk), Dose: 0, 2,000, 10,000, 50,000 ppm in diet for 105 wk (Study duration: 105 wk)): inactive; negative
carcinogen call (Species: Rat, Strain/Sex: F344/N / Female (50/Group), Route: Oral, Dose: 0, 2000, 10,000, 50,000 ppm (average daily doses of 0; 100; 510; 2630 mg/kg) in diet for 105 wk, Dose: 0, 2000, 10,000, 50,000 ppm (average daily doses of 0; 100; 510; 2630 mg/kg) in diet for 105 wk): inactive; negative
carcinogen call (Species: Rat, Strain/Sex: F344/N / Female (50/Group), Route: Oral, Dose: 0, 2,000, 10,000, 50,000 ppm in diet for 105 wk (Study duration: 105 wk), Dose: 0, 2,000, 10,000, 50,000 ppm in diet for 105 wk (Study duration: 105 wk)): inactive; negative
carcinogen call (Species: Rat, Strain/Sex: F344/N / Male (50/Group), Route: Oral, Dose: 0, 2000, 10,000, 50,000 ppm (average daily doses of 0; 90; 460; 2400 mg/kg) in diet for 105 wk, Dose: 0, 2000, 10,000, 50,000 ppm (average daily doses of 0; 90; 460; 2400 mg/kg) in diet for 105 wk, Tumor Site: Type of Lesion: Preputial gland: adenoma (1/50, 1/50, 7/50, 4/50)): equivocal
carcinogen call (Species: Rat, Strain/Sex: F344/N / Male (50/Group), Route: Oral, Dose: 0, 2,000, 10,000, 50,000 ppm in diet for 105 wk (Study duration: 105 wk), Dose: 0, 2,000, 10,000, 50,000 ppm in diet for 105 wk (Study duration: 105 wk), Tumor Site: Type of Lesion: Preputial gland: adenoma (1, 1, 7, 4; P</=0.05 at 10,000 ppm only)): inactive; negative. authors describe as equivocal evidence of carcinogenicity.

CCCCCl
carcinogen call (Species: MOUSE, Strain/Sex: B6C3F1/FEMALE, Route: GAVAGE, Dose: 0, 250, 500 MG/KG IN CORN OIL 5 D/WK FOR 103 WK, Dose: 0, 250, 500 MG/KG IN CORN OIL 5 D/WK FOR 103 WK): inactive; negative
carcinogen call (Species: MOUSE, Strain/Sex: B6C3F1/MALE, Route: GAVAGE, Dose: 0, 500, 1000 MG/KG IN CORN OIL 5 D/WK FOR 103 WK, Dose: 0, 500, 1000 MG/KG IN CORN OIL 5 D/WK FOR 103 WK): inactive; negative
carcinogen call (Species: RAT, Strain/Sex: F344/FEMALE, Route: GAVAGE, Dose: 0, 60, 120 MG/KG IN CORN OIL 5 D/WK FOR 103 WK, Dose: 0, 60, 120 MG/KG IN CORN OIL 5 D/WK FOR 103 WK): inactive; negative
carcinogen call (Species: RAT, Strain/Sex: F344/MALE, Route: GAVAGE, Dose: 0, 60, 120 MG/KG IN CORN OIL 5 D/WK FOR 103 WK, Dose: 0, 60, 120 MG/KG IN CORN OIL 5 D/WK FOR 103 WK): inactive; negative

CCCCN(CC)N=O
carcinogen call (Species: MOUSE, Strain/Sex: DBA/MALE,FEMALE, Route: ORAL, Dose: 10 MG/KG/D IN DRINKING WATER (TOTAL MEAN DOSE 2360 MG/KG), Tumor Site: Type of Lesion: FORESTOMACH: SQUAMOUS CELL CARCINOMA): active; positive
carcinogen call (Species: RAT, Strain/Sex: WISTAR/MALE, FEMALE, Route: ORAL, Dose: 0, 10 MG/KG/D FOR 4 WK THEN 5 MG/KG/D FOR DURATION OF STUDY (STUDY DURATION: LIFETIME), Tumor Site: Type of Lesion: ESOPHAGUS: CARCINOMA, PAPILLOMA, PHARYNX: PAPILLOMA, ORAL CAVITY: PAPILLOMA, LIVER: ANGIOSARCOMA, HEPATOCELLULAR CARCINO, Tumor Site: Type of Lesion: ESOPHAGUS: CARCINOMA, PAPILLOMA, PHARYNX: PAPILLOMA, ORAL CAVITY: PAPILLOMA, LIVER: ANGIOSARCOMA, HEPATOCELLULAR CARCINO): active; positive

CC(N)Cc1ccccc1 (stereo unspecified)
carcinogen call (Species: MOUSE, Strain/Sex: B6C3F1/FEMALE, Route: ORAL, Dose: 0, 20, 100 PPM IN DIET FOR 103 WK (STUDY DURATION: 105 WK), Dose: 0, 20, 100 PPM IN DIET FOR 103 WK (STUDY DURATION: 105 WK)): inactive; negative
carcinogen call (Species: MOUSE, Strain/Sex: B6C3F1/MALE, Route: ORAL, Dose: 0, 20, 100 PPM IN DIET FOR 103 WK (STUDY DURATION: 105 WK), Dose: 0, 20, 100 PPM IN DIET FOR 103 WK (STUDY DURATION: 105 WK)): inactive; negative
carcinogen call (Species: RAT, Strain/Sex: F344/FEMALE, Route: ORAL, Dose: 0, 20, 100 PPM IN DIET FOR 103 WK (STUDY DURATION: 105 WK), Dose: 0, 20, 100 PPM IN DIET FOR 103 WK (STUDY DURATION: 105 WK)): inactive; negative
carcinogen call (Species: RAT, Strain/Sex: F344/MALE, Route: ORAL, Dose: 0, 20, 100 PPM IN DIET FOR 103 WK (STUDY DURATION: 105 WK), Dose: 0, 20, 100 PPM IN DIET FOR 103 WK (STUDY DURATION: 105 WK)): inactive; negative

Cc1noc(NS(=O)(=O)c2ccc(N)cc2)c1C
carcinogen call (Species: MOUSE, Strain/Sex: B6C3F1/FEMALE, Route: GAVAGE, Dose: 0, 500, 2000 MG/KG IN 0.5% AQ CMC, Dose: 0, 500, 2000 MG/KG IN 0.5% AQ CMC): inactive; negative
carcinogen call (Species: MOUSE, Strain/Sex: B6C3F1/MALE, Route: GAVAGE, Dose: 0, 500, 2000 MG/KG IN 0.5% AQ CMC, Dose: 0, 500, 2000 MG/KG IN 0.5% AQ CMC): inactive; negative
carcinogen call (Species: RAT, Strain/Sex: F344/FEMALE, Route: GAVAGE, Dose: 0, 100, 400 MG/KG IN 0.5% AQ CMC, Dose: 0, 100, 400 MG/KG IN 0.5% AQ CMC): inactive; negative
carcinogen call (Species: RAT, Strain/Sex: F344/MALE, Route: GAVAGE, Dose: 0, 100, 400 MG/KG IN 0.5% AQ CMC, Dose: 0, 100, 400 MG/KG IN 0.5% AQ CMC): inactive; negative

CCCCCCCCCN(C)N=O
carcinogen call (Species: RAT, Strain/Sex: F344/MALE, Route: GAVAGE, Dose: 0, 100 MG/ML IN CORN OIL 2/WK FOR 30 WK, STUDY DURATION: 60 WK, Dose: 0, 100 MG/ML IN CORN OIL 2/WK FOR 30 WK, STUDY DURATION: 60 WK, Tumor Site: Type of Lesion: LUNG: ADENOCARCINOMA, NASAL CAVITY: CARCINOMA, PAPILLOMA, LIVER: CHOLANGIOCARCINOMA, HEPATOCELLULAR TUMOR, Tumor Site: Type of Lesion: LUNG: ADENOCARCINOMA, NASAL CAVITY: CARCINOMA, PAPILLOMA, LIVER: CHOLANGIOCARCINOMA, HEPATOCELLULAR TUMOR): active; positive

C=[N+]=[N-]
carcinogen call (Species: MOUSE, Route: INHALATION, DERMAL, Tumor Site: Type of Lesion: LUNG): active; positive
carcinogen call (Species: RAT, Route: INHALATION, Tumor Site: Type of Lesion: LUNG): active; positive

NC(=O)N(CCF)N=O
carcinogen call (Species: RAT, Strain/Sex: F344/MALE, Route: GAVAGE, Dose: 0, 1.75 MG/ML (TOTAL DOSE 0; 0.2 MMOL) IN 2 ML ETHYL ACETATE AND CORN OIL (1:2) 2/WK FOR 40 WK (STUDY DURATION: LIFETIME, Dose: 0, 1.75 MG/ML (TOTAL DOSE 0; 0.2 MMOL) IN 2 ML ETHYL ACETATE AND CORN OIL (1:2) 2/WK FOR 40 WK (STUDY DURATION: LIFETIME): inactive; negative
carcinogen call (Species: RAT, Strain/Sex: F344/MALE, Route: GAVAGE, Dose: 0, 1.75 MG/ML IN 0.2 ML ETHYL ACETATE AND CORN OIL 2/WK FOR 40 WK (STUDY DURATION: LIFESPAN), Tumor Site: Type of Lesion: FORESTOMACH: TUMOR): active; positive
